# Target: T1, EPHB2 (Homo sapiens, UniProt P29323)
# T1 construct: either as full-length or enzymatically active fragments; purchased ProQinase GmbH (Freiburg, Germany)
# T1 sequence (P29323 19-1055): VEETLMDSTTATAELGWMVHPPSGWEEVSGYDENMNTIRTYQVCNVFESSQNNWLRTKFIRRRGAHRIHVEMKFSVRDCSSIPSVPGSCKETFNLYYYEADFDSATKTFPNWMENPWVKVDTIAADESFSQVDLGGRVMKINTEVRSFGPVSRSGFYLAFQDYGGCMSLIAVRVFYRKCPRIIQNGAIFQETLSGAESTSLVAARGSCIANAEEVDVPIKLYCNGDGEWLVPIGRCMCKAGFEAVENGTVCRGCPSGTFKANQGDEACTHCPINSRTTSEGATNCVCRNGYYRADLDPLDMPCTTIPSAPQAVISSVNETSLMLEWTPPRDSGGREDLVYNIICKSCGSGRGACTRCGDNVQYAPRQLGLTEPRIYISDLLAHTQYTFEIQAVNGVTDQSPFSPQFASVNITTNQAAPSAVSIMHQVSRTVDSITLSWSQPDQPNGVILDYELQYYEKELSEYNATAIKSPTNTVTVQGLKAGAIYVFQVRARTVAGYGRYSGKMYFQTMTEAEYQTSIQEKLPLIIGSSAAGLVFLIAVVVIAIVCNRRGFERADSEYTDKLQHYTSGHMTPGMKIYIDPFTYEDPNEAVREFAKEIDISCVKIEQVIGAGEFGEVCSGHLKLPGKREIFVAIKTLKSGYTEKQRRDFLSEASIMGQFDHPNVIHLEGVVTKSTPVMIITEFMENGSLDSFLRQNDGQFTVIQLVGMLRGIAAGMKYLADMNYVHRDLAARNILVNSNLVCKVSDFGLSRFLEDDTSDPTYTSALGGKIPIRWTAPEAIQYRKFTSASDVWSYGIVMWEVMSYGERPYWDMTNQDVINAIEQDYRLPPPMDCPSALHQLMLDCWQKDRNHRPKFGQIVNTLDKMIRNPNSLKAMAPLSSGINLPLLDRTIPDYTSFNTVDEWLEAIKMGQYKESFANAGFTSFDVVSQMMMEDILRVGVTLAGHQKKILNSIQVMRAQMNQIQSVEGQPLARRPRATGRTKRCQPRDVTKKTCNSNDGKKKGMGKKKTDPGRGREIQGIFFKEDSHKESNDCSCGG
# Assay: Radiometric protein kinase assay (33PanQuinase Activity Assay), EPHB2
# Format: biochemical
# Details: ATP 0.3 μM
# Procedure: A proprietary radiometric protein kinase assay (33PanQuinase® Activity Assay) developed by ProQuinase GmbH (Freiburg, Germany) was used for measuring the kinase activity of selected protein kinases. All assays were performed in FlashPlates™ wells 96 Perkin Elmer (Boston, Mass., USA) in a reaction volume of 50 μl. The reaction mixture was obtained in 4 steps in the following order: • 1. 10 μl of a solution of non-radioactive ATP in water; • 2. 25 μl of assay buffer/[γ-^33P]-ATP mixture • 3. 5 μl of test sample in 10% DMSO • 4. 10 μl of enzyme/substrate mixture
# All protein kinases provided by ProQinase were expressed in Sf9 insect cells or in E. coli as recombinant GST-fusion proteins or His-tagged proteins, either as full-length or enzymatically active fragments. […] Kinases from external vendors (CAR=Carna Biosciences Inc.; INV=Life Technologies (Invitrogen Corporation); MIL=Merck-Millipore (Millipore Corporation), were expressed, purified and quality-controlled by virtue of the vendors readings.
# A stock solution of compound of formula (I) was diluted to 5×10-04M/100% DMSO. […] Incorporation of 33Pi (counting of “cpm”) was determined with a microplate scintillation counter (Microbeta, Wallac). […]
# Based on each 10 corresponding residual activities, IC50 values were calculated using Prism 5.04 for Windows (Graphpad, San Diego, Calif.). […]
smiles,measurement,value
"CN1CCN(c2ccc(C(=O)Nc3n[nH]c4cc(-c5ccc(O)cc5)c(Cc5cc(F)cc(F)c5)cc34)c(NC3CCOCC3)c2)CC1 [Example 3, N-[5-[(3,5-difluorophenyl)methyl]-6-(4-hydroxyphenyl)-1H-indazol-3-yl]-4-(4-methylpiperazin-1-yl)-2-(tetrahydropyran-4-ylamino)benzamide]",IC50,0.09 µM
